Measurements reported in publication PMC9569450, “Dual Effect of Tryptamine on Prostate Cancer Cell Growth Regulation: A Pilot Study” (International Journal of Molecular Sciences, 2022).

Key:
A549 cells = test: Transwell migration assay, A549; type: cell-based; conditions: 24 h
Protocol: Cell migration was evaluated using 8-μm transwell filters (Costar Corning, Schiphol-Rijk, The Netherlands). Cells at a density of 5 × 10^4 were seeded to the upper chamber, and the chamber was filled with FBS-free medium. Cells were incubated overnight to allow for adherence; then, the lower chamber was replaced with 10% FBS medium as a chemo-attractant. Following a 24 h incubation, non-migrating cells on the upper surface of the insert membrane were gently removed by cotton swabs and migrated cells on the lower surface of the insert membrane were fixed by 4% paraformaldehyde and stained with 0.1% crystal violet for 20 min. Migrated cells on each membrane were photographed and counted at 100× magnification field at six random fields.

PC-3 cells [1] = test: Annexin V-FITC/PI flow cytometry apoptosis assay; type: cell-based, human; conditions: 24 h
Protocol: Cell apoptosis was assessed by Annexin V-FITC and propidium iodide (PI) staining using an Annexin V-FITC apoptosis detection kit (Thermo Fisher Scientific, Carlsbad, CA, USA) according to the manufacturer’s instructions. Briefly, cells were seeded at a density of 1.0 × 10^5 cells/well and pre-incubated for 24 h to allow for adherence before treatment with various concentrations of tryptamine in an FBS-free medium. After 24 h of tryptamine incubation, cells in each well were harvested and centrifuged at 200× g for 5 min. Cells were washed with PBS and centrifuged at 200× g for 5 min. Cells were resuspended in 100 μL binding buffer, followed by staining with 5 μL Annexin V-FITC and 5 μL PI, and incubation on ice in the dark for 15 min after addition of each staining reagent. Subsequently, a 300 μL binding buffer was added to the sample and apoptotic cells were detected by a flow cytometer (NovoCyte; ACEA Biosciences Inc., San Diego, CA, USA).

PC-3 cells [2] = test: UPLC-HRMS cell metabolomics of tryptamine-treated PC-3 cells; type: cell-based, human
Protocol: The cells were seeded in 10 cm Petri dishes at a density of 1 × 10^6 cells/dish. After incubation overnight for adherence, cells were subjected to treatment with tryptamine (0.3 mM) in FBS-free medium, and control samples were treated with FBS-free medium. […] For cellular metabolite extraction, cells were first washed with PBS for three times, then 8 mL extraction solvent (methanol: acetonitrile: 0.5 M formic acid, 2:2:1 v/v/v) was added for quenching and cell lysis. The mixture was vortexed and sonicated on ice for 15 min to extract metabolites, and then centrifuged at 13,000 rpm for 10 min at 4 °C. The supernatant was collected and dried under vacuum. Before analysis, the sample was reconstituted in 100 μL H2O.
The chromatographic method involved elution with water with 0.1% acetic acid (A) and acetonitrile (B). The gradient program of cell metabolomics was as follows: 0–1 min 98–99% A, 1–3 min 2–30% A, 3–8 min 30–50% A, 8–10 min 50–95% A, 10–15 min 95–95% A. The flow rate was constant at 0.3 mL/min. […] The column was maintained at 35 °C. After each run, the gradient was re-equilibrated to its initial conditions over 6 min. Sample injection volume was 10 μL. The main mass spectrometer parameters were set as follows: capillary temperature 300 °C; capillary voltage and tube lens 20 V and 35 V, respectively, for positive mode, and 40 V and 80 V, respectively, for negative mode; spray voltage 4.0 kV in positive mode, and 2.5 kV and 2.8 kV in negative mode for serum and cell metabolite profiling, respectively; auxiliary gas, sheath gas and sweep gas flow rate 10, 40, and 0 arbitrary units, respectively. Data were acquired in the m/z range of 50–1000. The resolving power was 60,000 at m/z 195. Ultra-high-purity argon (≥99.999%) was used as the collision gas in UPLC–MS/MS experiments, and normalized collision voltages were in the range of 15–55 V.
Raw data was pre-processed using Progenesis QI software version 2.4 (Nonlinear Dynamics, Waters Corporation, Milford, CT, USA), which included peak picking and alignment. A data matrix table containing metabolic peak identity (retention time (Rt and m/z pair)) and peak abundances in samples was obtained. We used our previously designed FORTRAN program for data post-processing, including analyses of adducts, in-source fragments and chloride isotopic ions, contaminant and artefact ion removal, QC-based scaling, and normalization. Principal components analysis (PCA) and oPLS-DA (orthogonal partial least squares-discriminant analysis) were applied for sample classification using the PLS Toolbox software (version 8.9.1, Eigenvector Research, Inc., Manson, WA, USA) based on Matlab R2021a (version 9.10.0, MathWorks, Natick, MA, USA). Differential metabolites were identified with p-value < 0.05 and variance importance in projection (VIP) value greater than 1. The metabolites were identified based on accurate mass matching to theoretical values within a 2 mDa tolerance and MS/MS matching with spectral data in Human Metabolome Database (HMDB) and/or manual analysis of MS/MS spectra (Figure S4). MetaboAnalyst 5.0 was used for metabolic pathway and network analyses.

HepG2 cells = test: MTT cell proliferation assay, HepG2; type: cell-based; conditions: Homo sapiens, HepG2, 48 h treatment in FBS-free medium, read-out: IC50 Value (Mean ± SD mM) HepG2
Protocol: (§1) PC-3, LNCaP, RWPE-1, HepG2, A549, and PANC-1 cells were purchased from the National Collection of Authenticated Cell Cultures (Shanghai, China). […] All the above cell cultures were supplied with 10% fetal bovine serum and 1% penicillin-streptomycin. RWPE-1 cells were cultured in keratinocyte serum-free medium (K-SFM, Gibco, New York, NY, USA) supplemented with 50 mg/L bovine pituitary extract and 5 μg/L epidermal growth factor (EGF). All cell lines were grown in a humidified atmosphere of 5% CO2 at 37 °C.
(§2) Cells were seeded in 100 μL complete medium in a 96-well plate, at a density of 10,000 cells/well for LNCaP and 5000 cells/well for other cells. Cells were pre-incubated for 24 h to allow for adherence before removal of complete medium and treatment with various concentrations of compounds in fetal bovine serum (FBS)-free medium for 48 h. After treatment, 20 μL/well MTT (5 mg/mL) was added and incubated for 3–4 h at 37 °C, and then 100 μL/well DMSO was added for MTT assay. The plate was shaken on an orbital shaker for 10 min. Absorbance was measured using a microplate reader at 492 nm for the MTT assay (performed in triplicates). Cell viability was normalized to control. Half inhibitory concentration (IC50) was calculated by SPSS Statistics 17.0. […] The experiments were independently repeated two to three times.

RWPE-1 cells = test: MTT cell proliferation assay, RWPE-1; type: cell-based; conditions: Homo sapiens, RWPE-1; MTT, 48 h treatment in FBS-free medium; read-out: IC50 Value (Mean ± SD mM) RWPE-1
Protocol: as §1, §2

[3] = 0.3 mM, treatment/control ratio, negative = decreased

NCCc1c[nH]c2ccccc12 [Tryptamine]
migrated cells compared with the control (A549 cells; A549, 0.075 mM): no significant difference | percentage of migrated cells (A549 cells; A549, 0.15 mM): 80% | percentage of migrated cells (A549 cells; A549, 0.3 mM): 63% | apoptotic cell populations (early and late apoptosis) (PC-3 cells [1]; PC-3, 0.2 mM): 12.1% | apoptotic cell populations (early and late apoptosis) (PC-3 cells [1]; PC-3, 0.3 mM): 21.4% | Fold Change of ketoleucine (PC-3 cells [2]; 0.3 mM, treatment/control ratio): 0 | Fold Change of arginine (PC-3 cells [2]; [3]): −1.9 | Fold Change of aspartic acid (PC-3 cells [2]; [3]): −3.2 | Fold Change of creatine (PC-3 cells [2]; [3]): −2.0 | Fold Change of pantothenic acid (PC-3 cells [2]; [3]): −1.6 | Fold Change of proline (PC-3 cells [2]; [3]): −2.0 | Fold Change of spermidine (PC-3 cells [2]; [3]): −2.1 | Fold Change of spermine (PC-3 cells [2]; [3]): −2.1 | Fold Change of 5-HT (PC-3 cells [2]; 0.3 mM, treatment/control ratio, positive = increased): 1.4 × 10^3 | aspartic acid, fold decrease compared to the control group (PC-3 cells [2]; tryptamine treated group): 3.2 fold | IC50 (HepG2 cells): 0.35 ± 0.02 mM | IC50 (RWPE-1 cells): 0.71 ± 0.06 mM
